This assay concerns the target T1, AioX (Pseudorhizobium banfieldiae, UniProt L0NML6).
T1 construct: 304 amino acid residues; His-tag removed; SeMet-labelled
T1 sequence (L0NML6 27-304): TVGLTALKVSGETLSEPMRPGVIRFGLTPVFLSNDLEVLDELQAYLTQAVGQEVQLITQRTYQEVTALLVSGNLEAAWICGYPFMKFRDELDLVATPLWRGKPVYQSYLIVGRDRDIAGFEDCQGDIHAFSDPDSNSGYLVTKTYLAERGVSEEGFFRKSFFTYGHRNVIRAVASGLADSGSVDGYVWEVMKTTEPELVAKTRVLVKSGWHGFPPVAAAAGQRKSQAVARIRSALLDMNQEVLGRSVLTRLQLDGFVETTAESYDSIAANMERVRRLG
Nature of the assay: X-ray crystal structure ([…] Å; phosphate from the crystallisation conditions); no binding detected by ITC.

In turn, `O=P(O)(O)O` [phosphate] gave a dissociation constant (Kd) greater than 2000 µM.

As a reminder, the Kd is a measure of binding affinity in units of concentration.

The values above are taken from paper PMC5908839 (Scientific Reports, 2018).
